Patent publication US12724175B2, “Contact lens with optical prophylaxis” (High Performance Optics, Inc., priority 2021, dated 2026)
Read-outs that look alike come from different tables or passages of the source.

Columns and labels:
[1] = Stability under simulated photocuring conditions (450 nm LED, photoinitiator); assay type: physicochemical
Method: (§1) The stabilities of exemplary compounds 8 and 9 were evaluated under various conditions in the presence of initiator and monomer under curing conditions in comparison with copper tetraphenylporphyrin (Cu-TPP) and zinc tetraphenylporphyrin (Zn-TPP) as controls.
Experimental Procedure for Photo-Curing System:
• (A) for Stability Test without Monomers • 1. Parent solution: Dimethylacetamide (DMAC) solutions (200-500 ppm) of corresponding porphyrins, namely ZnTPP (200 ppm), CuTPP (200 ppm), Cu-TBP-Am (500 ppm), and Cu-TBP-MAm (500 ppm) were prepared in amber glass vial. The solutions were allowed to stir at room temperature for about 0.5 hour to provide homogeneous solutions. Photoinitiator (0.6 wt %) was added to each solution (under yellow light), and the solution was stirred for another 1 hour. • 2. Solution “BEFORE” Thermal Treatment & UV-VIS Measurement: The solution was transferred into 100 μm quartz cell and UV-Vis spectra were recorded using Perkin Elmer Lambda 850 UV-Vis Spectrophotometer. The spectrum was regarded as “before”. • 3. Photocuring of Parent Solution: Each quartz cell was exposed to 450 nm LED light with intensity of 55 mW/cm^2 for 30 s. • 4. Solution “AFTER” photocuring & UV-VIS Measurement: UV-Vis spectra of solutions in 100 μm quartz cell exposed to LED light were recorded using Perkin Elmer Lambda 850 UV-Vis Spectrophotometer. The spectrum was regarded as “after”. • 5. % T Calculation: % Loss is expressed as % T increase at the specific wavelength of Soret band for each porphyrin solution. • (B) For Stability Test with Monomers • 1. Parent solution: Cu-TBP-Am and Cu-TBP-MAm were dissolved in DMA (30 wt %), TRIS (30 wt %) and 1-PrOH (40 wt %) in amber glass vial to afford 500 ppm porphyrin solutions. The solutions were allowed to stir at room temperature for about 0.5 hour to provide homogeneous solutions. Photoinitiator (0.6 wt %) was added to each solution (under yellow light), and the solution was stirred for another 1 hour. • 2. Solution “BEFORE” Thermal Treatment & UV-VIS Measurement: The solution was transferred into 100 μm quartz cell and UV-Vis spectra were recorded using Perkin Elmer Lambda 850 UV-Vis Spectrophotometer. The spectrum was regarded as “before”. • 3. Photocuring of Parent Solution: Each quartz cell was exposed to 450 nm LED light with intensity of 55 mW/cm^2 for 30 s. • 4. Solution “AFTER” photocuring & UV-VIS Measurement: UV-Vis spectra of solutions in 100 μm quartz cell exposed to LED light were recorded using Perkin Elmer Lambda 850 UV-Vis Spectrophotometer. The spectrum was regarded as “after”. • 5. % T Calculation: % Loss is expressed as % T increase at the specific wavelength of Soret band for each porphyrin solution. Experimental Procedure for Thermal-Curing System: • (A) for Stability Test without Monomers • 1. Parent solution: Dimethylacetamide (DMAC) solutions (500 ppm) of corresponding porphyrins, namely ZnTPP, CuTPP, Cu-TBP-Am, and Cu-TBP-MAm were prepared in amber glass vial. The solutions were allowed to stir at room temperature for about 0.5 hours to provide homogeneous solutions. Vazo 64 (0.5 wt %) was added to each solution, and the solution was stirred for another 10 minutes. Each solution was bubbled with nitrogen for 5 minutes to remove oxygen. • 2. […] The solution was transferred into 1 cm quartz cell and UV-Vis spectra were recorded using Perkin Elmer Lambda 850 UV-Vis Spectrophotometer. […]

[2] = Stability under simulated thermal curing conditions (Vazo 64, 80° C., 2 hours); assay type: physicochemical; conditions: 500 ppm, Vazo 64 0.5 wt %; for Stability under simulated thermal curing, without monomers: DMAC
Method: as §1
• (A) for Stability Test without Monomers • 1. Parent solution: Dimethylacetamide (DMAC) solutions (200-500 ppm) of corresponding porphyrins, namely ZnTPP (200 ppm), CuTPP (200 ppm), Cu-TBP-Am (500 ppm), and Cu-TBP-MAm (500 ppm) were prepared in amber glass vial. The solutions were allowed to stir at room temperature for about 0.5 hour to provide homogeneous solutions. Photoinitiator (0.6 wt %) was added to each solution (under yellow light), and the solution was stirred for another 1 hour. • 2. Solution “BEFORE” Thermal Treatment & UV-VIS Measurement: The solution was transferred into 100 μm quartz cell and UV-Vis spectra were recorded using Perkin Elmer Lambda 850 UV-Vis Spectrophotometer. The spectrum was regarded as “before”. • 3. […] Solution “AFTER” photocuring & UV-VIS Measurement: UV-Vis spectra of solutions in 100 μm quartz cell exposed to LED light were recorded using Perkin Elmer Lambda 850 UV-Vis Spectrophotometer. The spectrum was regarded as “after”. • 5. % T Calculation: % Loss is expressed as % T increase at the specific wavelength of Soret band for each porphyrin solution. • (B) For Stability Test with Monomers • 1. […] Solution “BEFORE” Thermal Treatment & UV-VIS Measurement: The solution was transferred into 100 μm quartz cell and UV-Vis spectra were recorded using Perkin Elmer Lambda 850 UV-Vis Spectrophotometer. […] Solution “AFTER” photocuring & UV-VIS Measurement: UV-Vis spectra of solutions in 100 μm quartz cell exposed to LED light were recorded using Perkin Elmer Lambda 850 UV-Vis Spectrophotometer. The spectrum was regarded as “after”. • 5. % T Calculation: % Loss is expressed as % T increase at the specific wavelength of Soret band for each porphyrin solution. […] The solution was transferred into 1 cm quartz cell and UV-Vis spectra were recorded using Perkin Elmer Lambda 850 UV-Vis Spectrophotometer. […]

[3] = Solubility studies at 500 ppm in solvent, monomers and simulated formulation
Method: The solubilities of exemplary compounds 8 and 9 were evaluated in various solvent systems in comparison with copper tetraphenylporphyrin (Cu-TPP) as a control.
• 1. Weigh 3 to 4 mg of the Copper porphyrin compound into an 8 mL scintillation vial • 2. In the case of one solvent or monomer, dilute to 500 ppm with the solvent or monomer, add a stir bar, and stir mixture overnight. • 3. In the case of multiple solvents, add the best solvent for the copper porphyrin first, add a stir bar and stir for 1 hour. Add the other solvents and stir overnight. • 4. Evaluate solution miscibility after stirring overnight.

[4] = UV-visible transmittance, molar extinction coefficient of Soret band; assay type: physicochemical; conditions: concentrations 300 to 1000 ppm
Method: ^1H-NMR spectra were recorded on Bruker 600 MHz spectrometer. CD3OD (Methanol-d3) and DMSO-d6 (Dimethyl sulfoxide-d6) were used as solvents. UPLC of porphyrins was acquired on ACQUITY UPLC H-Class PLUS UPLC with Waters PDA detector, using Phenomenex Jupiter® 5 μm C18 300 Å, LC Column (150×2.0 mm). LC-MS of porphyrins was acquired on The Thermo Scientific™ Q Exactive™ HF hybrid quadrupole-Orbitrap mass spectrometer, using Phenomenex Aeris™ 3.6 μm WIDEPORE C4 200 Å, LC Column (50×2.1 mm). UV-vis spectra were obtained on Perkin Elmer Lambda 850 UV-Vis Spectrophotometer.
(§2) Compound 8 also characterized by UV-visible transmittance at concentrations ranging from 300 to 1000 ppm (FIG. 15). Molar extinction coefficients of 490,000-544,000 M-1 cm-1 for Soret band are in agreement with literature values for similar metallated porphyrins (Taniguchi, M.; Lindsey, J. S. Photochemistry and Photobiology, 2018, 94, 290-327).
as §2, with “Compound 9” for “Compound 8”, “(FIG. 16).” for “(FIG. 15).”, “490,000-544,000 M^−1 cm^−1” for “490,000-544,000 M-1 cm-1”

[5] = DMAC, photoinitiator 0.6 wt %, 450 nm LED 55 mW/cm^2 for 30 s
[6] = 500 ppm, 1-Propanol, stirred overnight
[7] = 500 ppm, monomer DMA, stirred overnight
[8] = 500 ppm, monomer HEMA, stirred overnight
[9] = 500 ppm, simulated formulation 1-PrOH/DMA/TRIS (1:1:1)
[10] = 500 ppm, simulated formulation 1-PrOH/DMA/TRIS/Silicone oil (1:1:1:1)

Row | Molecule | Stability (% T increase at Soret band) under simulated photocuring, with monomers ([1]; DMA/TRIS/1-PrOH, 500 ppm, photoinitiator 0.6 wt %, 450 nm LED 55 mW/cm^2 for 30 s) | Stability (% T increase at Soret band) under simulated photocuring, without monomers [1, 5] | Stability under simulated thermal curing, with monomers ([2]; DMA/TRIS/1-PrOH) | Stability under simulated thermal curing, without monomers [2] | Solubility [3, 6] | Solubility [3, 7] | Solubility [3, 8] | Solubility [3, 9] | Solubility [3, 10] | Molar extinction coefficients for Soret band [4] | Stability (% T increase at Soret band) under simulated photocuring, without monomers [1] | Solubility [3]
1 | C=CC(=O)NCCC[N+](C)(C)Cc1ccc(/C2=C3\C=CC(=N3)/C(c3ccc(C[N+](C)(C)CCCNC(=O)C=C)cc3)=c3/cc/c4[n]3[Cu][n]3c2ccc3/C(c2ccc(C[N+](C)(C)CCCNC(=O)C=C)cc2)=C2/C=CC(=N2)\C=4c2ccc(C[N+](C)(C)CCCNC(=O)C=C)cc2)cc1 [Compound 9, Cu(II) tetra-(dimethylaminopropylacrylamidophenyl) porphine tetrabromide] | not observed | show % T increase | much better stability | much better stability | Soluble | Partially | Soluble | Soluble | Partially | 490,000-544,000 M^−1 cm^−1 |  | 
2 | copper tetraphenylporphyrin [Cu-TPP, reference compound] |  |  |  |  | Insoluble | Soluble | Insoluble | Insoluble | Insoluble |  | significantly more stable than ZnTPP | 
3 | C1=Cc2nc1c(-c1ccccc1)c1ccc([n-]1)c(-c1ccccc1)c1nc(c(-c3ccccc3)c3ccc([n-]3)c2-c2ccccc2)C=C1.[Zn+2] [ZnTPP, zinc tetraphenylporphyrin, reference compound] |  | CuTPP is significantly more stable than ZnTPP |  | difference is not observed |  |  |  |  |  |  |  | 
4 | C=C(C)C(=O)NCCC[N+](C)(C)Cc1ccc(/C2=C3\C=CC(=N3)/C(c3ccc(C[N+](C)(C)CCCNC(=O)C(=C)C)cc3)=c3/cc/c4[n]3[Cu][n]3c2ccc3/C(c2ccc(C[N+](C)(C)CCCNC(=O)C(=C)C)cc2)=C2/C=CC(=N2)\C=4c2ccc(C[N+](C)(C)CCCNC(=O)C(=C)C)cc2)cc1 [Compound 8, Cu(II) tetra-(dimethylaminopropylmethacrylamidophenyl) porphine tetrabromide] |  |  |  |  |  |  |  |  |  | 490,000-544,000 M^−1 cm^−1 | show % T increase | Soluble
